How the values were obtained:
[1] = Solubility assessment in unbuffered water and pH buffers; type: physicochemical; details: solution in unbuffered water
Description: 100 μL of the appropriate buffer was added to form a slurry.

[2] = Gravimetric vapour sorption (GVS); type: physicochemical
Description: Approximately 10-20 mg of sample was placed into a mesh vapour sorption balance pan and loaded into an IGASorp Moisture Sorption Analyser balance by Hiden Analytical. The sample was subjected to a ramping profile from 40-90% relative humidity (RH) at 10% increments, maintaining the sample at each step until a stable weight had been achieved (98% step completion, minimum step length 30 minutes, maximum step length 60 minutes) at 25° C. After completion of the sorption cycle, the sample was dried using the same procedure to 0% RH, and finally taken back to the starting point of 40% RH. Two cycles were performed. The weight change during the sorption/desorption cycles were plotted, allowing for the hygroscopic nature of the sample to be determined.

[3] = Variable humidity XRPD (VH-XRPD); type: physicochemical; details: exposure to 90% RH for up to 1 hour and 30 minutes
Description: VH-XRPD analysis was carried out on a Philips X'Pert Pro Multipurpose diffractometer equipped with a humidity chamber. The samples were scanned between 4 and 35.99° 20 using Cu K radiation (α1 λ=1.54060 Å; α2=1.54443 Å; β=1.39225 Å; α1: α2 ratio=0.5) running in Bragg-Brentano geometry (step size 0.008 °2θ) using 40 kV/40 mA generator settings. Measurements were performed at 50%, 60%, 70%, 80%, 90%. The sample was held at 90% for an hour and 30 minutes. Measurements were taken at 30-minute intervals.

[4] = system: dopaminergic (TH positive) neurons; experiment: Survival and neurite network of TH(+) mesencephalic neurons after MPP+ injury; type: cell-based, rat; details: MPP+ 4 μM 48 h; 50 nM dose
Description: Rat dopaminergic neurons were cultured as described by Visanji et al. in FASEB J. 2008, 22(7): 2488-2497 and Callizot et al., in Plos One 2019: https://doi.org/10.1371/journal.pone.0215277. Briefly, pregnant female rat (Wistar) of 15 days of gestation were killed using a deep anesthesia with CO2 chamber and a cervical dislocation. The midbrains obtained from 15-day-old rat embryos (Janvier, France) were dissected under a microscope. The embryonic midbrains were removed and placed in ice-cold medium of Leibovitz (L15) containing 2% of Penicillin-Streptomycin (PS) and 1% of BSA. The ventral portion of the mesencephalic flexure, a region of the developing brain rich in dopaminergic neurons, were used for the cell preparations. The midbrains were dissociated by trypsinization for 20 min at 37° C. (solution at a final concentration of 0.05% trypsin and 0.02% EDTA). The reaction was stopped by the addition of DMEM containing DNAase I grade II (0.5 mg/mL) and 10% of FCS. […] Viable cells were counted in a Neubauer cytometer using the trypan blue exclusion test. […]
The following read-outs were investigated: • neuron survival: total number of TH neurons (TH staining), • neurite network: total length of neurite network of TH positive neurons (in μm) • α-syn aggregation (area of overlapping between TH and α-syn staining in μm^2) […]

N-(3-(4-(3-(diisobutylamino)propyl)piperazin-1-yl)propyl)-1H-benzo[d]imidazol-2-amine sesqui-succinate salt [sesqui-succinate salt Form 1]
pH measurement [1]: 5.28 | Post-GVS XRPD crystalline form ([2]; after exposure to GVS humidity conditions): remain as the same crystalline form | GVS weight uptake ([2]; at 70% RH, 25° C.): ca. +0.1 wt. % | GVS water uptake in equivalents ([2]; up to 90% RH): approximately 7.1 equiv. water | GVS weight increase ([2]; up to 90% RH, 25° C.): ca. +18.9 wt. % | hygroscopicity ([2]; up to 90% relative humidity): not hygroscopic | VH-XRPD crystalline form [3]: no change to crystallinity or form | neurite network of TH positive neurons [4]: significantly improved | neuron survival: total number of TH neurons [4]: neuroprotective
